# Test: Heparin affinity chromatography
# Format: binding
# Settings: TSKgel Heparin-5PW column, 10 mM phosphate buffer, pH 7.2
# Experimental: Heparin binding chromatography was performed by high performance liquid chromatography (HPLC; Shimadzu, Japan). A linear gradient of mobile phase A (10 mM phosphate buffer, pH 7.2) and mobile phase B (0.75 M NaCl in 10 mM phosphate buffer, pH 7.2) was used with a TSKgel Heparin-5PW column ([…], 10 μm; Tosoh Bioscience, Japan).
substance,measurement,value
SIGGIR,binding to heparin HPLC affinity column,did not bind

# Reference: publication PMC5743680, “Bleogens: Cactus-Derived Anti-Candida Cysteine-Rich Peptides with Three Different Precursor Arrangements” (Frontiers in Plant Science, 2017)
